Holding throughout (assay): NCI-60 cell line screen, 48 h
The test system of assay [1] is HCT-116.
The subject of assay [2] is HCT-15.
Assay [3] concerns A549.
For assay [4], the system named is SK-MEL-5.
Assay [5] has as its system LOX IMVI.
The subject of assay [6] is IGROV-1.
The test system of assay [7] is OVCAR-5.
Assay [8] deals with SW-620.
The test system of assay [9] is CAKI-1.
For assay [10], the system named is RXF 393.
Assay [11] concerns HCC 2998.
Assay [12] concerns HOP-62.
Assay [13] concerns OVCAR-4.
In assay [14] the test system is SF-268.
The test system of assay [15] is COLO 205.
The subject of assay [16] is SK-MEL-28.
In assay [17] the test system is K562.
The subject of assay [18] is RPMI-8226.

SMILES strings stand for the structures.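 Growth conditions: 96-well plates. Treatment: test compound, 48 hours, 5 concentrations. Analysis: linear interpolation between bracketing concentrations; unreached endpoints set to highest concentration. Abbreviation: GI50, concentration required for 50% inhibition of growth.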 Calls of active or inactive are those of the source. Rule as the data show it: active = GI50 up to about 1.1 µM and inactive = higher. Some results are limits rather than exact numbers.

Turning to `C=C(C)C1CC=C(C(=O)O)CC1` (configuration not stated), the GI50 was 793 µM (inactive) in assay [1]; 871 µM in assay [2]; 1210 µM (inactive) in assay [3]; 752 µM (inactive) in [4]; 1220 µM (inactive) in assay [5]; 774 µM (inactive) in assay [6]. The GI50 was 1660 µM (inactive) in [7]; 1740 µM (inactive) in assay [8]; 1300 µM (inactive) in [9]; 942 µM (inactive) in assay [10]; 1080 µM (inactive) in [11]; 995 µM (inactive) in assay [12]. For the same compound, the GI50 was 1760 µM (inactive) in assay [13]; 1190 µM (inactive) in assay [14]; 592 µM (inactive) in assay [15]; 1010 µM (inactive) in [16]; 1200 µM (inactive) in assay [17].
With `O=C(Nc1ccccc1)n1cc(-c2ccccn2)c(N2CCOCC2)n1`, the GI50 in [1] is 4.29 µM (inactive); in assay [2], 4.47 µM; in assay [3], 18.8 µM (inactive); in assay [4] it was 6.04 µM (inactive); in assay [5] it was 5.75 µM (inactive); in [6], 12 µM (inactive). Besides, the GI50 is 4.27 µM (inactive) in [18]; 5.85 µM (inactive) in [8]; 13 µM (inactive) in [9]; 21.7 µM (inactive) in assay [11]; 6.59 µM (inactive) in [12]; > 100 µM (inactive) in assay [13]. Besides, the GI50 in assay [14] was > 100 µM (inactive); in assay [15], 5.14 µM (inactive); in [17], 3.58 µM (inactive).
`N#CC(c1ccc(Cl)cc1)c1cccc(Cl)n1` (configuration not stated): the GI50 in assay [3] was 31 µM (inactive); in assay [18], 51.1 µM (inactive); in assay [7] it was > 100 µM (inactive); in assay [8], > 100 µM (inactive); in assay [9], 25.3 µM (inactive); in assay [11], 61 µM (inactive). The GI50 in [12] is 91 µM (inactive); in assay [13] it was 40 µM (inactive); in [14], 38.4 µM (inactive); in assay [15], 67.1 µM (inactive); in [16], 86.9 µM (inactive); in assay [17] it was 58.9 µM (inactive).
On to `CCCOCN1COCN/C1=N\C#N`, for which the GI50 was 84.1 µM (inactive) in [1]; 17.1 µM in assay [2]; 42.3 µM (inactive) in [3]; > 100 µM (inactive) in assay [4]; 24.5 µM (inactive) in assay [5]; > 100 µM (inactive) in [6]. The GI50 in [18] was 69.7 µM (inactive); in assay [7], > 100 µM (inactive); in assay [8] it was 14 µM (inactive); in [9] it was > 100 µM (inactive); in [10] it was 15.3 µM (inactive); in [11] it was > 100 µM (inactive). Further, the GI50 was > 100 µM (inactive) in assay [12]; 32.1 µM (inactive) in [13]; 39.1 µM (inactive) in [14]; 17.9 µM (inactive) in assay [15]; > 100 µM (inactive) in assay [16]; > 100 µM (inactive) in [17].
On to `COc1ccccc1/N=N/c1c(-c2ccccc2)nn(C(=O)CC(=O)Nc2cccc(C)c2)c1-c1ccccc1`, for which the GI50 in [1] was 28 µM (inactive); in assay [2], 21.1 µM; in [3], 26.5 µM (inactive); in [4], 18.7 µM (inactive); in assay [5], 27.5 µM (inactive); in assay [6], 24.7 µM (inactive). For the same compound, the GI50 in [7] is 36.3 µM (inactive); in assay [8], 41.3 µM (inactive); in assay [9], 23.3 µM (inactive); in assay [10] it was 53.3 µM (inactive); in [11], 42 µM (inactive); in assay [12], 19.1 µM (inactive). Moreover, the GI50 in [13] was 28.6 µM (inactive); in assay [14] it was 39.4 µM (inactive); in [15] it was 71.3 µM (inactive); in [16], > 100 µM (inactive); in assay [17] it was 15.7 µM (inactive).
Take `O=C(O)CNc1c2ccccc2nc2ccccc12`: the GI50 in [1] is 78.3 µM (inactive); in assay [2], above 100 µM; in assay [3], > 100 µM (inactive); in assay [4] it was > 100 µM (inactive); in assay [5] it was > 100 µM (inactive); in [6], > 100 µM (inactive). The GI50 was 56.8 µM (inactive) in assay [18]; > 100 µM (inactive) in [7]; > 100 µM (inactive) in assay [8]; > 100 µM (inactive) in assay [9]; > 100 µM (inactive) in assay [10]; > 100 µM (inactive) in [11]. The GI50 in [13] was 22.1 µM (inactive); in [14], > 100 µM (inactive); in assay [15], > 100 µM (inactive); in assay [16] it was > 100 µM (inactive); in [17] it was > 100 µM (inactive).
Turning to `c1ccc(COCC2OC3c4ccccc4COC3C2OCc2ccccc2)cc1` (configuration not stated), the GI50 was 71.3 µM (inactive) in assay [1]; 69.5 µM in [2]; > 100 µM (inactive) in assay [3]; 70.6 µM (inactive) in assay [4]; > 100 µM (inactive) in assay [6]; 63 µM (inactive) in assay [18]. The GI50 was > 100 µM (inactive) in assay [7]; > 100 µM (inactive) in [8]; 76.9 µM (inactive) in assay [9]; 32 µM (inactive) in [10]; > 100 µM (inactive) in [11]; > 100 µM (inactive) in assay [13]. Besides, the GI50 in assay [15] was > 100 µM (inactive); in [16], > 100 µM (inactive); in assay [17] it was 57.5 µM (inactive).
As to `Cc1cc(=O)n(-c2ccccc2)c(=O)o1`, the GI50 in [1] was > 100 µM (inactive); in assay [2] it was above 100 µM; in assay [3] it was > 100 µM (inactive); in assay [4], > 100 µM (inactive); in assay [5], 32.8 µM (inactive); in assay [6], > 100 µM (inactive). The GI50 in assay [18], in assay [7], in assay [8], in assay [9], in [10] and in assay [11] was > 100 µM (inactive) each time. Also, the GI50 in [12], in [13], in [14], in assay [15], in assay [16] and in assay [17] was > 100 µM (inactive) in each case.
Regarding `CC(=O)Nc1c(Nc2ccccc2)[nH]c(C)nc1=S`, the GI50 in assay [2] is above 100 µM; in assay [3], > 100 µM (inactive); in [4], > 100 µM (inactive); in [5], > 100 µM (inactive); in assay [6] it was > 100 µM (inactive); in [18] it was > 100 µM (inactive). Also, the GI50 in [7], in [8], in assay [9], in assay [10], in assay [11] and in [12] was > 100 µM (inactive) in each case. Also, the GI50 in assay [13], in [14], in assay [15], in [16] and in assay [17] was > 100 µM (inactive) throughout.
Regarding `CCOC(=O)/C(C#N)=C1/C(O)=C(C(=O)OC)C(C(=O)OC)=C1C(=O)OC.c1ccncc1`, the GI50 in [2] was above 100 µM; in assay [3], > 100 µM (inactive); in assay [4] it was > 100 µM (inactive); in assay [5] it was > 100 µM (inactive); in [6] it was > 100 µM (inactive); in [18] it was > 100 µM (inactive). For the same compound, the GI50 in [7], in [8], in assay [9], in assay [10], in assay [11] and in assay [13] was > 100 µM (inactive) in each case. For the same compound, the GI50 in assay [14], in assay [15], in assay [16] and in assay [17] was > 100 µM (inactive) each time.
For `Cc1c(Cl)ccc2[s+]snc12`, the GI50 was 22.7 µM (inactive) in assay [1]; 46.2 µM in assay [2]; 38.6 µM (inactive) in [3]; 21 µM (inactive) in assay [4]; 23.7 µM (inactive) in assay [5]; 48.8 µM (inactive) in [6]. The GI50 was > 100 µM (inactive) in assay [7]; 27.7 µM (inactive) in [8]; 37.9 µM (inactive) in assay [9]; 19.8 µM (inactive) in [10]; 88.3 µM (inactive) in [11]; 51.6 µM (inactive) in assay [12]. The GI50 in [13] was 42.3 µM (inactive); in assay [14] it was 23.8 µM (inactive); in assay [15], > 100 µM (inactive); in assay [16] it was 29.4 µM (inactive); in [17] it was 22.6 µM (inactive).
For the compound `Cc1ccc(-c2cc(O)c3cc4c(cc3n2)OCO4)cc1`, the GI50 is 1.24 µM (inactive) in [1]; 0.501 µM in assay [2]; 2.02 µM (inactive) in [3]; 0.35 µM (active) in assay [4]; 2.67 µM (inactive) in assay [5]; 3.48 µM (inactive) in assay [6]. In addition, the GI50 in assay [18] is 2.13 µM (inactive); in assay [7], 2.61 µM (inactive); in assay [8] it was 0.482 µM (active); in [9] it was 3.52 µM (inactive); in assay [10], 1.44 µM (inactive); in assay [11] it was 1.42 µM (inactive). For the same compound, the GI50 in assay [12] is 2.25 µM (inactive); in [13], 8.97 µM (inactive); in [14], 2.96 µM (inactive); in assay [15] it was 0.63 µM (active); in assay [16], 2.67 µM (inactive); in [17], 0.705 µM (active).

The record behind these values is ChEMBL document CHEMBL1201862, “PubChem BioAssay data set” (2004).
